In US10165775B2, “Pesticidal compositions and processes related thereto” (Dow AgroSciences LLC, priority 2011, dated 2019) one finds melting point and pest or weed control data, which are given here for 34 compounds.

Data set [1] has as its system Sweetpotato whitefly-crawler (Bemisia tabaci) (BEMITA). Kind of data set: Insecticidal test for sweetpotato whitefly-crawler in foliar spray assay on cotton plants. The format is in vivo. Conditions: 200 ppm foliar spray, graded after 8-9 days, Abbott corrected % control, read-out: BEMITA % Ctrl @ 200 ppm. As to the method: Cotton plants grown in 3-inch pots, with 1 small (3-5 cm) true leaf, were used as test substrate. The plants were placed in a room with whitefly adults. Adults were allowed to deposit eggs for 2-3 days. After a 2-3 day egg-laying period, plants were taken from the adult whitefly room. Adults were blown off leaves using a hand-held Devilbiss sprayer (23 psi). Plants with egg infestation (100-300 eggs per plant) were placed in a holding room for 5-6 days at 82° F. and 50% RH for egg hatch and crawler stage to develop. Four cotton plants were used for each treatment. Compounds (2 mg) were dissolved in 1 mL of acetone solvent, forming stock solutions of 2000 ppm. The stock solutions were diluted 10× with 0.025% Tween 20 in H2O to obtain a test solution at 200 ppm. A hand-held Devilbiss sprayer was used for spraying a solution to both sides of cotton leaf until runoff. Reference plants (solvent check) were sprayed with the diluent only. Treated plants were held in a holding room for 8-9 days at approximately 82° F. and 50% RH prior to grading. Evaluation was conducted by counting the number of live nymphs per plant under a microscope. Insecticidal activity was measured by using Abbott's correction formula and presented in “Table 4. Biological Data for GPA (MYZUPE) and sweetpotato whitefly-crawler (BEMITA)” (see column “BEMITA”): Corrected % Control=100*(X−Y)/X • where X=No. of live nymphs on solvent check plants • Y=No. of live nymphs on treated plants Pesticidally Acceptable Acid Addition Salts, Salt Derivatives, Solvates, Ester Derivatives, Polymorphs, Isotopes and Radionuclides

Data set [2] deals with Green Peach Aphid (GPA) (Myrzus persicae) (MYZUPE). Briefly: Bioassay on green peach aphid (GPA), foliar spray on cabbage seedlings. Format: in vivo. The note with it: Myzus persicae, 72 h, 200 ppm foliar spray, graded after three days, Abbott corrected % control, read-out: MYZUPE % Ctrl @ 200 ppm. As to the method:
Certain molecules disclosed in this document were tested against GPA using procedures described in the following example. In the reporting of the results, “Table 3: GPA (MYZUPE) and sweetpotato whitefly-crawler (BEMITA) Rating Table” was used (See Table Section).
Cabbage seedlings grown in 3-inch pots, with 2-3 small (3-5 cm) true leaves, were used as test substrate. The seedlings were infested with 20-50 GPA (wingless adult and nymph stages) one day prior to chemical application. Four pots with individual seedlings were used for each treatment. Test compounds (2 mg) were dissolved in 2 mL of acetone/methanol (1:1) solvent, forming stock solutions of 1000 ppm test compound. The stock solutions were diluted 5× with 0.025% Tween 20 in H2O to obtain the solution at 200 ppm test compound. A hand-held aspirator-type sprayer was used for spraying a solution to both sides of […] leaves until runoff. Reference plants (solvent check) were sprayed with the diluent only containing 20% by volume of acetone/methanol (1:1) solvent. Treated plants were held in a holding room for three days at approximately 25° C. and ambient relative humidity (RH) prior to grading. Evaluation was conducted by counting the number of live aphids per plant under a microscope. Percent Control was measured by using Abbott's correction formula (W. S. Abbott. “A Method of Computing the Effectiveness of an Insecticide” J. Econ. Entomol. 18 (1925), pp. 265-267) as follows. Corrected % Control=100*(X−Y)/X • where • X=No. of live aphids on solvent check plants and • Y=No. of live aphids on treated plants
Biological Data for GPA (MYZUPE) and sweetpotato whitefly-crawler (BEMITA)” (See Table Section).

The structures appear in SMILES notation.

The term melting point denotes the temperature of the solid-liquid transition. Compound `CSCC(C)(C)C(=O)N(C)c1cc(-c2cccnc2)nn1C` [Compound 3] showed a melting point of 190 to 193 °C.

For the compound `Cc1nn(-c2cncc(F)c2)cc1NC(=O)OC(C)(C)C` [Compound 111, tert-butyl 1-(5-fluoropyridin-3-yl)-3-methyl-1H-pyrazol-4-ylcarbamate], the melting point was in the range of 131.5 to 133 °C. With `CCN(C(=O)CC(OC)(C(F)(F)F)C(F)(F)F)c1cn(-c2cccnc2)nc1C` [Compound 276, N-ethyl-4,4,4-trifluoro-3-methoxy-N-(3-methyl-1-(pyridin-3-yl)-1H-pyrazol-4-yl)-3-(trifluoromethyl)butanamide], the melting point lay within 83 to 86 °C.

As to `CC(C)(C)OC(=O)Nc1cn(-c2cncc(F)c2)nc1C1CC1` [Compound 434, tert-butyl (3-cyclopropyl-1-(5-fluoropyridin-3-yl)-1H-pyrazol-4-yl)carbamate], the melting point was in the range of 156.5 to 158 °C. In turn, `CC(C)C(=O)Nc1cn(-c2cncc(F)c2)nc1CO` [Compound 435, N-(1-(5-fluoropyridin-3-yl)-3-(hydroxymethyl)-1H-pyrazol-4-yl)isobutyramide] returned a melting point of 144 to 146 °C.

On to `CC(C)C(=O)Nc1cn(-c2cncc(F)c2)nc1C=O` [Compound 560, N-(1-(5-fluoropyridin-3-yl)-3-formyl-1H-pyrazol-4-yl)isobutyramide], for which the melting point lay within 140 to 142 °C. Still for that read-out and setting: the result for `CC(C)C(=O)Nc1cn(-c2cncc(F)c2)nc1CCl` [Compound 561, N-(3-(chloromethyl)-1-(5-fluoropyridin-3-yl)-1H-pyrazol-4-yl)isobutyramide] reads 172 to 177 °C. Take `C#CCN(C(=O)OC(C)(C)C)c1cn(-c2cccnc2)nc1C` [Compound 596]: the melting point is 73 to 75 °C. The pest or weed control at 200 ppm in data set [1] was 80 to 100%. The pest or weed control at 200 ppm in data set [2] lay within 80 to 100%. Turning to `C#CCN(C(=O)CCC(F)(F)F)c1cn(-c2cccnc2)nc1C` [Compound 597], the pest or weed control at 200 ppm in data set [1] lay within 0 to 80%; in data set [2], 80 to 100%. As for `C#CCN(C(=O)CCSC)c1cn(-c2cccnc2)nc1C` [Compound 598], the pest or weed control at 200 ppm was in the range of 0 to 80% in data set [1] and 80 to 100% in data set [2]. On the same counts, the results for `C#CCN(C(=O)C(C)CSC)c1cn(-c2cccnc2)nc1C` (stereo not drawn) [Compound 599] are 0 to 80% and 80 to 100%. On to `C#CCN(C(=O)C(C)C)c1cn(-c2cccnc2)nc1C` [Compound 600], for which the melting point fell in the range of 89 to 90 °C. In data set [1], the pest or weed control at 200 ppm was 0 to 80%. Further, the pest or weed control at 200 ppm in data set [2] was in the range of 80 to 100%. Consider `C#CCN(C(=O)OC(C)(C)C)c1cn(-c2cncc(F)c2)nc1C` [Compound 601, tert-butyl 1-(5-fluoropyridin-3-yl)-3-methyl-1H-pyrazol-4-yl(prop-2-ynyl)carbamate], for which the melting point lay within 81 to 82 °C. The pest or weed control at 200 ppm in data set [1] is 80 to 100%. For the same compound, the pest or weed control at 200 ppm in data set [2] was 80 to 100%.

In the case of `C#CCN(C(=O)C(C)CSC)c1cn(-c2cncc(F)c2)nc1C` (stereo not drawn) [Compound 602], the pest or weed control at 200 ppm in data set [1] and in data set [2] was 80 to 100% in each case. `C#CCN(C(=O)C(C)C)c1cn(-c2cncc(F)c2)nc1C` [Compound 603]: the melting point lay in the range of 99 to 100 °C. Also, in data set [1], the pest or weed control at 200 ppm is 80 to 100%. For the same compound, the pest or weed control at 200 ppm in data set [2] fell in the range of 80 to 100%. As to `C#CCN(C(=O)CCC(F)(F)F)c1cn(-c2cncc(F)c2)nc1C` [Compound 604], the pest or weed control at 200 ppm in data set [1] and in data set [2] was 80 to 100% throughout. On to `C#CCN(C(=O)CCSC)c1cn(-c2cncc(F)c2)nc1C` [Compound 605, N-(1-(5-fluoropyridin-3-yl)-3-methyl-1H-pyrazol-4-yl)-3-(methylthio)-N-(prop-2-ynyl)propanamide], for which the pest or weed control at 200 ppm in data set [1] and in data set [2] was 80 to 100% throughout.

With `C#CCN(C(=O)OC(C)(C)C)c1cn(-c2cccnc2)nc1Cl` [Compound 606, tert-butyl (3-chloro-1-(pyridin-3-yl)-1H-pyrazol-4-yl)(prop-2-yn-1-yl)carbamate], the pest or weed control at 200 ppm in data set [1] and in data set [2] was 80 to 100% throughout. For the compound `C#CCN(C(=O)CCSC)c1cn(-c2cccnc2)nc1Cl` [Compound 607], the pest or weed control at 200 ppm in data set [1] and in data set [2] was 80 to 100% each time. As to `C#CCN(C(=O)C(C)CSC)c1cn(-c2cccnc2)nc1Cl` (stereo not drawn) [Compound 608], the pest or weed control at 200 ppm in data set [1] and in data set [2] was 80 to 100% each time. Consider `C#CCN(C(=O)CCC(F)(F)F)c1cn(-c2cccnc2)nc1Cl` [Compound 609], for which the pest or weed control at 200 ppm in data set [1] and in data set [2] was 80 to 100% in each case. `C#CCN(C(=O)C(C)C)c1cn(-c2cccnc2)nc1Cl` [Compound 610] displayed a melting point of 98 to 99 °C. For the same compound, the pest or weed control at 200 ppm in data set [1] lay within 80 to 100%. In data set [2], the pest or weed control at 200 ppm fell in the range of 80 to 100%. As for `C#CCN(C(=O)C(C)SC)c1cn(-c2cccnc2)nc1Cl` (stereo not drawn) [Compound 611, N-(3-chloro-1-(pyridin-3-yl)-1H-pyrazol-4-yl)-2-(methylthio)-N-(prop-2-yn-1-yl)propanamide], the pest or weed control at 200 ppm in data set [1] and in data set [2] was 80 to 100% in each case. Compound `C#CCN(C(=O)CSC)c1cn(-c2cccnc2)nc1Cl` [Compound 612] had a melting point of 65 to 68 °C. The pest or weed control at 200 ppm in data set [1] was 80 to 100%. Besides, the pest or weed control at 200 ppm in data set [2] lay within 80 to 100%. For `C#CCN(C(=O)CC(SC)C(F)(F)F)c1cn(-c2cccnc2)nc1Cl` (stereo not drawn) [Compound 613, N-(3-chloro-1-(pyridin-3-yl)-1H-pyrazol-4-yl)-4,4,4-trifluoro-3-(methylthio)-N-(prop-2-yn-1-yl)butanamide], the pest or weed control at 200 ppm in data set [1] and in data set [2] was 80 to 100% each time. Regarding `C#CCN(C(=O)CCC(C)(F)F)c1cn(-c2cccnc2)nc1Cl` [Compound 614], the pest or weed control at 200 ppm in data set [1] and in data set [2] was 80 to 100% each time. On to `C#CCN(C(=O)CCC(F)(F)C(F)(F)F)c1cn(-c2cccnc2)nc1Cl` [Compound 615], for which the pest or weed control at 200 ppm in data set [1] is 80 to 100%; in data set [2], 0 to 80%. For `C#CCN(C(=O)C[S+](C)[O-])c1cn(-c2cccnc2)nc1Cl` (stereo not drawn) [Compound 620] the same measures were 80 to 100% and 80 to 100%. Turning to `C#CCN(C(=O)CS(C)(=O)=O)c1cn(-c2cccnc2)nc1Cl` [Compound 621], the pest or weed control at 200 ppm in data set [1] and in data set [2] was 80 to 100% in each case. As to `C#CCN(C(=O)C(SC)C(=O)CSC)c1cn(-c2cccnc2)nc1Cl` (stereo not drawn) [Compound 622], the pest or weed control at 200 ppm in data set [1] and in data set [2] was 80 to 100% each time. Take `C#CCN(C(=O)CN(C)S(C)(=O)=O)c1cn(-c2cccnc2)nc1Cl` [Compound 623, N-(3-chloro-1-(pyridin-3-yl)-1H-pyrazol-4-yl)-2-(N-methylmethylsulfonamido)-N-(prop-2-yn-1-yl)acetamide]: the pest or weed control at 200 ppm in data set [1] and in data set [2] was 80 to 100% in each case.

In turn, `C#CCN(C(=O)CCSC(c1ccccc1)(c1ccccc1)c1ccccc1)c1cn(-c2cccnc2)nc1Cl` [Compound 624] yielded a melting point of 68 to 70 °C. Consider `C#CCN(C(=O)CCSCCC(F)(F)F)c1cn(-c2cccnc2)nc1Cl` [Compound 626], for which the pest or weed control at 200 ppm in data set [1] and in data set [2] was 80 to 100% throughout. As to `C#CCN(C(=O)CCSCCC(F)(F)F)c1cn(-c2cccnc2)nc1C` [Compound 627, N-(3-methyl-1-(pyridin-3-yl)-1H-pyrazol-4-yl)-N-(prop-2-yn-1-yl)-3-((3,3,3-trifluoropropyl)thio)propanamide], the pest or weed control at 200 ppm in data set [1] and in data set [2] was 80 to 100% each time.
